Measurements: patent US20160075682A1, “INHIBITORS OF NICOTINAMIDE PHOSPHORIBOSYLTRANSFERASE, COMPOSITIONS, PRODUCTS AND USES THEREOF” (UNIVERSITÀ DEGLI STUDI DEL PIEMONTE ORIENTALE "AMEDEO …, priority 2013, published 2016)

Assays:
[1] = system: spinal cord injury in male adult CD1 mice; test: Spinal cord injury by clip compression, motor function; format: in vivo; settings: i.p. one and 6 hours post injury
Protocol: Male adult CD1 mice (25-30 g, Harlan Nossan, Milan, Italy) were used for all studies. Mice were housed in individual cages (5 for each group) and maintained under 12:12 light-dark cycle at 21±1° C. and 50±5% humidity.
Spinal cord injury (SCI) was induced in male adult mice by the clip compression technique (Genovese et al. J. Pharmacol. Exp. Ther. 2008a, 325, 100-14). SHAM-operated animals were taken as control. Drugs were given i.p. one and 6 hours post injury. Animal care was in compliance with Italian regulations on protection of animals used for experimental and other scientific purpose (D.M. 116192) and with the EEC regulations (O.J. of E.C. L 358/1 Dec. 18, 1986). Animals were sacrificed at post-injury (at least five animals/experimental group were analysed).
The motor function of mice subjected to SCI was assessed once a day for 7 days after injury.
The evaluations were made by two blind observers for all analyzed groups.
Briefly, the BMS is a nine-point scale that pro vides a gross indication of locomotor ability and determines the phases of locomotor recovery and features of locomotion. The BMS score was determined for ten mice in each group. Spinal cord tissues were taken at 24 hours after trauma. Tissue was used for histological grading of the damage or for immunocytochemistry with inflammation, cell death or autophagy markers.
As previously described, the spinal cord of male adult CD1 mice was injured by the clip compression technique, compound of formula (I) was administered and the motor function was assessed.

[2] = system: SH-SY5Y, HeLa; test: MTT cell proliferation assay and trypan blue count (cell viability); format: cell-based; settings: cells treated for 48 and 72 hours; read-out: IC50 values (inhibition of cellular proliferation, MTT assay and trypan blue assay)
Method in brief: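 SH-SY5Y and HeLa cells, 8×10^5 per well, exposed 48 and 72 h with final DMSO ≤0.5%. Viability by MTT (250 μg/ml, 1 h, A570 after isopropanol/HCl) and by trypan blue count. IC50 from dose-response curves for some compounds.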

Compound	motor recovery [1]	protection from injury [1]	IC50 [2] [µM]
c1ccc(-c2ccccc2OCCCCCCn2cc(-c3cccnc3)nn2)cc1 [3-(1-(6-([1,1′-biphenyl]-2-yloxy)hexyl)-1H-1,2,3-triazol-4-yl)pyridine]	partial motor recovery	partially protect from injury	< 0.3
O=C(NCCCCCCCn1cc(-c2cccnc2)nn1)c1ccccc1-c1ccccc1 [N-(7-(4-(pyridin-3-yl)-1H-1,2,3-triazol-1-yl)heptyl)-[1,1′-biphenyl]-2-carboxamide]	partial motor recovery	partially protect from injury	< 0.3
